Results from publication PMC4022148 (Molecular and biochemical parasitology, 2014).

Biological target: T1, E. histolytica LMW-PTP (Entamoeba histolytica, UniProt C4LSE7)
T1 sequence (C4LSE7 1-157): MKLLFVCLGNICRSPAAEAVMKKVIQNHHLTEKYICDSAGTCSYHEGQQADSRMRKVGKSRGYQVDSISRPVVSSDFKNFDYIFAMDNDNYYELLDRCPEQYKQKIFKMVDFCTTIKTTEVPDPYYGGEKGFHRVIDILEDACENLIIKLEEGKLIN
Assay: colorimetric phosphatase assay, A405
Format: biochemical
Details: kit assay buffer, 10-200 ng enzyme, 100 ul

For `O=[N+]([O-])c1ccc(OP(=O)(O)O)cc1` [pNPP], the “colorimetric phosphatase assay, A405 (SensoLyte pNPP kit)” value was “The wild-type recombinant LMW-PTP possessed phosphatase activity”.
